# Legend:
# FFPE human brain tissues [1] = experiment: Masking autofluorescence of FFPE human brain tissue with quencher analogues; details: for background signal compared to unquenched tissues: quencher 1 mM 30 min, 50 mM DTT, all four channels 488, 532, 590, 647 nm (FIGS. 7A-7D); for detected object local mean signal-to-noise ratio: quencher 1 mM, 590 nm and 647 nm (FIGS. 8B, 8C)
# Method: Formalin-fixed paraffin embedded (FFPE) human brain tissues were treated using the protocol described in Example 1 and further treated using 50 mM DTT for 30 minutes. Next, the tissues were incubated with the quenchers (1 mM) for 30 minutes prior to staining. Staining was performed using nucleic acid probes targeting an anchor sequence which is present within all of the RCPs and targeting epithelial genes-rp1p0, malat1, and actb. The tissues were stained with the quencher compounds 1A, 2A, 1B, 3B, a combination of quenchers 1A and 3B, or a commercial quencher (Table 1, for comparison).
# [2] = system: fresh frozen (FrF) mouse brain tissues (dentate gyrus, cortex); experiment: Targeted masking of autofluorescence, in situ imaging of fresh frozen mouse brain tissue sections
# Method: (§1) Formalin-fixed paraffin embedded (FFPE) human brain tissues and fresh frozen (FrF) mouse brain tissues were obtained for this example. The samples were sectioned to 10 μm thickness and transferred to Superfrost® Plus slides. The FFPE human brain tissues were treated multiple times with Histo-Clear® and citrate buffer to remove the embedded paraffin. The FrF mouse brain samples were fixed using 3.7% formaldehyde for 5 minutes. The slides were then incubated with nucleic acid probes targeting genes of interest. The nucleic acid probes were allowed to hybridize overnight in hybridization buffer at 37° C. The next day, the samples were washed using wash buffers to remove excess or unbound probes. The probes were then ligated in the presence of ligase, RNAase inhibitor and ligation buffer for 2 hours. Subsequently, the ligation products were amplified overnight using polymerases and amplification buffers. The samples were then stained using fluorescently labelled probes. Finally, the quenching agent compound 1A was dissolved in DMF (at 18 mM), diluted with 70% ethanol to provide solutions of compound 1A at concentrations of 3.6 mM, 1.8 mM, and 0.9 mM. These solutions were applied to the samples prior to imaging. Once imaged, the fluorescently labelled probes were stripped using a denaturing agent and contacted with additional detectable probes before the next imaging round. In this manner, multiple rounds of stripping, re-probing, and imaging of signals associated with the fluorescently labelled probes, were performed without any additional quenching steps.
# (§2) To improve the binding of compound 1A to tissue moieties responsible for autofluorescence, the FrF mouse brain tissues were treated with dithiothreitol (DTT, 50 mM) and 2% TEA for 10 minutes before quenching with compound 1A. DTT reduces disulfide bridges in the tissues thereby increasing the thiol content for improved binding of compound 1A. Alternatively, the tissues were treated with a combination of 2,5-dioxopyrrolidin-1-yl 3-oxo-1-(pyridin-2-yldisulfaneyl)-7,10,13,16-tetraoxa-4-azanonadecan-19-oate (PEG4-SPDP), a derivative of succinimidyl 3-(2-pyridyldithio) propionate (SPDP) comprising an internal tetraoligoethylene linker, and DTT, to convert amines to thiols and reduce any disulfide bridges to increase thiol content. For the reduction only treatment, the tissues were treated with DTT (50 mM for 10 minutes). […] FIGS. 3A and 3C depict the fluorescence for the dentate gyrus and cortex portions prior to quenching, in which punctuate fluorescence signals were associated with rolling circle amplification products, and amorphous background fluorescence was detected.
# FFPE human brain tissues [3] = experiment: Targeted masking of autofluorescence, in situ imaging of FFPE human brain tissue
# Method: as §1
# as §2, with “minutes). For the conversion of amines to thiols and subsequent reduction, the tissues were treated first with PEG4-SPDP (10 mM) for 10 minutes, followed by treatment with DTT (50 mM) and compound 1A (0.9 mM). PEG4-SPDP is a multifunctional crosslinker for protein conjugation via amine-to-amine or amine-to-sulfhydryl crosslinks that contain a 4-unit polyethylene glycol (PEG) group and a reducible (cleavable) disulfide bond. The tissues were then washed prior to or after staining. […] Results were compared to the tissues incubated with a native thiol targeting group (control group).” for “minutes).”
# Further studies were conducted on FFPE human brain tissue that were enriched for binding moieties in the tissue via treatment with DTT or with DTT and PEG4-SPDP. FIG. 5 depicts the signal-to-noise ratio increased post-quenching with DTT/Compound 1A and PEG4-SPDP-DTT/Compound 1A, and was maintained after stripping with DMSO treatment and rehybridization of fluorescent probes.
# [4] = system: FFPE human tonsil tissues; experiment: Autofluorescence masking over multiple cycles in FFPE human tonsil tissue
# Method: Formalin-fixed paraffin embedded (FFPE) human tonsil and liver tissues were obtained for this example. The samples were sectioned to 5 μm thickness and transferred to Superfrost® Plus slides. The samples were treated multiple times with Histo-Clear® and citrate buffer to remove the embedded paraffin and incubated overnight with nucleic acid probes targeting epithelial genes. The next day, the samples were washed with wash buffers to remove excess or unbound probes. The probes were then ligated in the presence of ligase, RNAase inhibitor and ligation buffer for 2 hours. Subsequently, the ligation products were amplified overnight using polymerases and amplification buffers. The samples were then stained using fluorescently labelled probes. Prior to staining, the samples with treated with DTT (1 mM) for 10 minutes and quenchers with different concentrations of the compound 1A (0.1 mM, 0.5 mM, and 0.8 mM). Images of control samples without compound 1A treatment were obtained for comparison. Samples were imaged in two field of views (FOVs) to control for photo bleaching. Once imaged, the fluorescently labelled probes were stripped using a denaturing agent and contacted with additional detectable probes before the next imaging round. In this manner, multiple rounds of stripping, re-probing, and imaging of signals associated with the fluorescently labelled probes, were performed without any additional quenching steps.
# [5] = stripping of fluorescently labeled probes and rehybridization
# [6] = PEG4-SPDP-DTT/Compound 1A (FIG. 5)
smiles,measurement,setting,value
COc1cc(/N=N/c2c(Cl)cc([N+](=O)[O-])cc2Cl)c(OC)cc1/N=N/c1ccc(N(C)CCCN2C(=O)C=CC2=O)cc1 [Compound 2A],background signal compared to unquenched tissues,FFPE human brain tissues [1],significant reduction
same,detected object local mean signal-to-noise ratio,FFPE human brain tissues [1],improved
COc1cc(/N=N/c2ccc([N+](=O)[O-])cc2)c(OC)cc1/N=N/c1ccc(N(C)CCCN2C(=O)C=CC2=O)cc1 [Compound 1A],staining of the tissues with the targeting chemistry,"[2]; FrF mouse brain, DTT or PEG4-SPDP/DTT enrichment, compared to native thiol control group",efficiently stain
same,background signal,"[2]; after stripping with DMSO, treatment with compound 1A and rehybridization with additional probes",significantly reduced
same,background in dentate gyrus (DG) and cortex samples,"[2]; mouse brain, quenched vs prior to quenching (FIGS. 3A-3D)",efficiently reduced
same,autofluorescence quenching effect after stripping,[2]; [5],retained
same,background in human brain tissues,FFPE human brain tissues [3],efficiently reduced
same,signal to background ratio after 5 cycles of stripping and rehybridizing,"FFPE human brain tissues [3]; 488 nm, 590 nm, 532 nm and 647 nm, single quenching application (FIGS. 6A-6D)",maintained
same,signal-to-noise ratio after stripping with DMSO and rehybridization of fluorescent probes,FFPE human brain tissues [3]; DTT/Compound 1A (FIG. 5),maintained
same,signal-to-noise ratio post-quenching,FFPE human brain tissues [3]; DTT/Compound 1A (FIG. 5),increased
same,signal-to-noise ratio after stripping with DMSO and rehybridization of fluorescent probes,FFPE human brain tissues [3]; [6],maintained
same,signal-to-noise ratio post-quenching,FFPE human brain tissues [3]; [6],increased
same,retention of quencher on tissues through multiple detection cycles,"FFPE human brain tissues [3]; covalently bound, no repeated quenching steps",retained
same,autofluorescence quenching effect after stripping,FFPE human brain tissues [3]; [5],retained
same,background signal compared to unquenched tissues,FFPE human brain tissues [1],significant reduction
same,detected object local mean signal-to-noise ratio,FFPE human brain tissues [1],improved
same,detected object density,"[4]; 0.1, 0.5 and 0.8 mM, 488 nm (FIGS. 10A-10C)",increase
same,detected object local signal-to-noise ratio,"[4]; 0.1, 0.5 and 0.8 mM, 488 nm (FIGS. 11A-11C)",Increased
same,background signal compared to unquenched tonsil tissues,"[4]; 0.1, 0.5 and 0.8 mM, 488 nm, cycles 5-7 vs 1-3, multiple cycles of stripping and reprobing (FIGS. 9A-9C)",Significant reduction
same,background noise across all four wavelengths measured,"[4]; 488, 532, 590, 647 nm (data for additional wavelengths not shown)",reduced background noise was maintained
same,signal intensity,"[4]; 488 nm, after quenching",reduced
same,detected objected signal intensity above local background,"[4]; quenched tissue, 488 nm, exposure time increased from 10 ms to 30 ms (FIG. 12)",significantly improved
COc1cc(/N=N/c2ccc([N+](=O)[O-])cc2)c(OC)cc1/N=N/c1ccc(N(C)CCCC(=O)ON2C(=O)CCC2=O)cc1 [Compound 1B],background signal compared to unquenched tissues,FFPE human brain tissues [1],significant reduction
same,detected object local mean signal-to-noise ratio,FFPE human brain tissues [1],improved
CCN(CC)c1ccc2nc3ccc(/N=N/c4ccc(N(C)CCCC(=O)ON5C(=O)CCC5=O)cc4)cc3[n+](-c3ccccc3)c2c1 [Compound 3B],background signal compared to unquenched tissues,FFPE human brain tissues [1],significant reduction

# Source: patent US12234507B2, “Compositions and methods for targeted masking of autofluorescence” (10x Genomics, Inc., priority 2022, dated 2025)
